Results published in ChEMBL document CHEMBL1201862, “PubChem BioAssay data set” (2004).
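Briefly, cells in 96-well plates were exposed to five compound concentrations for 48 h, and endpoints were estimated by linear interpolation. Abbreviation: GI50, concentration required for 50% inhibition of growth.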 The source made the active and inactive calls. No stated cut-off is given here; in the data, active = GI50 up to about 1.1 µM and inactive = higher.

Tests used:
Test in all cases: inhibition of tumour cell growth, NCI panel, 48 h
[1] = system: SF-268
[2] = system: HCT-15
[3] = system: SNB-75
[4] = system: KM12
[5] = system: HOP-62
[6] = system: HOP-92
[7] = system: SN12C
[8] = system: OVCAR-8
[9] = system: COLO 205
[10] = system: EKVX
[11] = system: SK-MEL-28
[12] = system: MOLT-4
[13] = system: M14
[14] = system: OVCAR-3

Structure (SMILES) | GI50 [1] | GI50 [2] [µM] | GI50 [3] | GI50 [4] | GI50 [5] | GI50 [6] | GI50 [7] | GI50 [8] | GI50 [9] | GI50 [10] | GI50 [11] | GI50 [12] | GI50 [13] | GI50 [14]
COc1ccc2c(CN3CCCCC3CO)cc3cc(OC)c(OC)cc3c2c1 (configuration not stated) | 6.28 µM (inactive) | 4.38 | 8.53 µM (inactive) | 4.35 µM (inactive) | 6.43 µM (inactive) | 2.1 µM (inactive) | 6.25 µM (inactive) | 4.42 µM (inactive) | 2.58 µM (inactive) | 6.41 µM (inactive) | 6.32 µM (inactive) | 2.82 µM (inactive) | 4.74 µM (inactive) | 5.57 µM (inactive)
Nc1ccc2ncc(Nc3ccc(Cl)c(Cl)c3)nc2c1 | 39.7 µM (inactive) | 34 | 16 µM (inactive) | 25.9 µM (inactive) | 42.3 µM (inactive) | 13.6 µM (inactive) | 36.4 µM (inactive) | 25.5 µM (inactive) | 16.7 µM (inactive) | 27.2 µM (inactive) | 26.5 µM (inactive) | 17.7 µM (inactive) | 19.4 µM (inactive) | 19.4 µM (inactive)
CC1(c2ccccc2)CC(c2ccccc2)=NO1 (configuration not stated) | > 100 µM (inactive) | > 100 | > 100 µM (inactive) | > 100 µM (inactive) | > 100 µM (inactive) | > 100 µM (inactive) | > 100 µM (inactive) | > 100 µM (inactive) | > 100 µM (inactive) | > 100 µM (inactive) | > 100 µM (inactive) | > 100 µM (inactive) | > 100 µM (inactive) | > 100 µM (inactive)
C/C(=N\NC(=O)c1ccccc1O)c1c(O)cc(C)oc1=O | 49.4 µM (inactive) | 91.2 | 20.2 µM (inactive) | > 100 µM (inactive) | 98.6 µM (inactive) | 10.4 µM (inactive) | > 100 µM (inactive) | 68.2 µM (inactive) | > 100 µM (inactive) | 29.9 µM (inactive) | > 100 µM (inactive) | 67.5 µM (inactive) | > 100 µM (inactive) | 41.2 µM (inactive)
Cc1cccc(C)c1N1C(=O)C(=O)C(c2nc3ccccc3s2)/C(=N/NC(=O)NN)C1=O (configuration not stated) | > 100 µM (inactive) | > 100 | > 100 µM (inactive) | > 100 µM (inactive) | > 100 µM (inactive) | > 100 µM (inactive) | > 100 µM (inactive) | > 100 µM (inactive) | > 100 µM (inactive) | > 100 µM (inactive) | > 100 µM (inactive) | > 100 µM (inactive) | > 100 µM (inactive) | > 100 µM (inactive)
O=C(O)CCSC(=O)Nc1ccccc1Cl | > 100 µM (inactive) | > 100 | > 100 µM (inactive) | 51.2 µM (inactive) | > 100 µM (inactive) | > 100 µM (inactive) | > 100 µM (inactive) | > 100 µM (inactive) | > 100 µM (inactive) | > 100 µM (inactive) | > 100 µM (inactive) | > 100 µM (inactive) | > 100 µM (inactive) | > 100 µM (inactive)
COC(=O)c1ccc(CS(=O)(=O)c2ccccc2)cc1 | > 100 µM (inactive) | 39.5 | 48.3 µM (inactive) | 51.9 µM (inactive) | > 100 µM (inactive) | > 100 µM (inactive) | > 100 µM (inactive) | > 100 µM (inactive) | 59.4 µM (inactive) | > 100 µM (inactive) | > 100 µM (inactive) | > 100 µM (inactive) | 49.8 µM (inactive) | > 100 µM (inactive)
O=[N+]([O-])C1C2C=CC(C2)[C@H]1c1ccccc1Cl (some centres not stated) | > 100 µM (inactive) | > 96.6 | 20.5 µM (inactive) | > 100 µM (inactive) | > 10 µM (inactive) | 24 µM (inactive) | > 100 µM (inactive) | > 100 µM (inactive) | > 100 µM (inactive) | > 100 µM (inactive) | > 68.7 µM (inactive) | 57 µM (inactive) | > 100 µM (inactive) | 22 µM (inactive)
